As usually defined, the IC50 is the concentration that inhibits the measured activity by half. Read a low IC50 as greater potency.

One compound from US8617879B2, “Apparatus for cell or tissue culture” (Agency for Science, Technology and Research, priority 2009, dated 2013) can be followed below.

For the assay, the system named is C3A cells. Kind of assay: APAP-induced hepatotoxicity IC50 measurement with robotic liquid handler. In kind it is cell-based. The following applies: Homo sapiens. As for the experimental part:
Using the human liver cancer cell line C3A, cultured in the bioreactor, IC50 value measurements were conducted with a robotic liquid handler (FIG. 16).

As to `CC(=O)Nc1ccc(O)cc1` [APAP, acetaminophen], the IC50 was determined as 80 mM (C3A cells cultured in Si3N4—SC (static)), 71 mM (C3A cells cultured in Si3N4—SCP (Si3N4 sandwich perfusion in 96-well bioreactor)) and 84.6 mM (C3A cells cultured in collagen gel sandwich (static)).
